Assay results taken from ChEMBL document CHEMBL3885861, “Open TG-GATES”.

Species on record: Rattus norvegicus
Assay: Open TG-GATES - Regimen: Daily Repeat
Format: toxicity, organism-based, Sprague-Dawley
Parameters: regimen Daily Repeat, gender Male, age 6 weeks
Conditions: in vivo, po, route gavage; for Eos / Fbg / Hb / Ht / Lym / MCHC / MCV / Mono / Neu / PT / Plat / RBC / Ret / WBC / Bas: tissue Blood; for ALP / AST / BUN / CRE / Ca / Cl / DBIL / GLC / IP / K / LDH / Na / PL / RALB / TBIL / TC / TG / TP / gamma-GTP / ALT: tissue Plasma
[1] = 300 mg/kg, 72 h, dose level Middle, time 3 day
[2] = 300 mg/kg, […], dose level Middle, time 7 day
[3] = 300 mg/kg, […], dose level Middle, time 14 day
[4] = 300 mg/kg, […], dose level Middle, time 28 day
[5] = 1000 mg/kg, 72 h, dose level High, time 3 day
[6] = 1000 mg/kg, […], dose level High, time 7 day
[7] = 1000 mg/kg, […], dose level High, time 14 day
[8] = 1000 mg/kg, […], dose level High, time 28 day

Compound: O=C(O)c1cccnc1 [NIACIN]
- Eos [1]: 1%
- Fbg [1]: 314.2 mg/dL
- Hb [1]: 13.3 g/dL
- Ht [1]: 40.2%
- Lym [1]: 75.2%
- MCHC [1]: 33%
- MCV [1]: 63.4 fL
- Mono [1]: 3.6%
- Neu [1]: 19%
- PT [1]: 16 s
- Plat [1]: 132.1 x10_4/uL
- RBC [1]: 635.6 x10_4/ul
- Ret [1]: 7.2%
- WBC [1]: 106.7 x10_2/uL
- ALP [1]: 1606.8 IU/L
- AST [1]: 74.6 IU/L
- BUN [1]: 16.4 mg/dL
- CRE [1]: 0.2 mg/dL
- Ca [1]: 10.8 mg/dL
- Cl [1]: 104 meq/L
- DBIL [1]: 0 mg/dL
- GLC [1]: 191.6 mg/dL
- IP [1]: 8.2 mg/dL
- K [1]: 4.1 meq/L
- LDH [1]: 165.8 IU/L
- Na [1]: 139.6 meq/L
- PL [1]: 152.8 mg/dL
- RALB [1]: 3 g/dL
- TBIL [1]: 0 mg/dL
- TC [1]: 73.2 mg/dL
- TG [1]: 136.2 mg/dL
- TP [1]: 5.6 g/dL
- gamma-GTP [1]: 1.2 IU/L
- TERMINAL_BW [2]: 273.2 g
- TERMINAL_BW [3]: 321.5 g
- TERMINAL_BW [4]: 396.3 g
- Bas [2]: 0%
- Eos [2]: 1%
- Fbg [2]: 325.8 mg/dL
- Hb [2]: 13.8 g/dL
- Ht [2]: 41.4%
- Lym [2]: 75%
- MCHC [2]: 33.4%
- MCV [2]: 63.5 fL
- Mono [2]: 3.4%
- Neu [2]: 19.2%
- PT [2]: 15.6 s
- Plat [2]: 112.8 x10_4/uL
- RBC [2]: 652.2 x10_4/ul
- Ret [2]: 6%
- WBC [2]: 104.1 x10_2/uL
- Bas [3]: 0%
- Eos [3]: 0.6%
- Fbg [3]: 325.2 mg/dL
- Ht [3]: 42.2%
- Lym [3]: 72.6%
- MCHC [3]: 33.7%
- MCV [3]: 59.8 fL
- Mono [3]: 3.4%
- Neu [3]: 21.8%
- PT [3]: 15.5 s
- Plat [3]: 109.4 x10_4/uL
- RBC [3]: 705.8 x10_4/ul
- Ret [3]: 4.7%
- WBC [3]: 119.8 x10_2/uL
- Bas [4]: 0%
- Eos [4]: 1.2%
- Fbg [4]: 336.6 mg/dL
- Hb [4]: 15 g/dL
- Ht [4]: 42.6%
- Lym [4]: 74.8%
- MCHC [4]: 35.3%
- MCV [4]: 56 fL
- Mono [4]: 2.8%
- PT [4]: 16.1 s
- Plat [4]: 100.4 x10_4/uL
- RBC [4]: 761.2 x10_4/ul
- Ret [4]: 2.6%
- WBC [4]: 105.7 x10_2/uL
- ALP [2]: 1661 IU/L
- ALT [2]: 47.8 IU/L
- AST [2]: 76 IU/L
- BUN [2]: 17.6 mg/dL
- CRE [2]: 0.1 mg/dL
- Ca [2]: 10.7 mg/dL
- Cl [2]: 105 meq/L
- DBIL [2]: 0 mg/dL
- GLC [2]: 189 mg/dL
- IP [2]: 7.4 mg/dL
- K [2]: 4.3 meq/L
- LDH [2]: 138.4 IU/L
- Na [2]: 139.8 meq/L
- PL [2]: 161.8 mg/dL
- RALB [2]: 2.9 g/dL
- TBIL [2]: 0 mg/dL
- TC [2]: 79.6 mg/dL
- TG [2]: 135.8 mg/dL
- TP [2]: 5.5 g/dL
- gamma-GTP [2]: 1.4 IU/L
- ALP [3]: 1495.2 IU/L
- ALT [3]: 39.6 IU/L
- AST [3]: 68.8 IU/L
- CRE [3]: 0.2 mg/dL
- Ca [3]: 10.7 mg/dL
- Cl [3]: 104.4 meq/L
- DBIL [3]: 0 mg/dL
- GLC [3]: 201 mg/dL
- IP [3]: 6.8 mg/dL
- K [3]: 3.9 meq/L
- LDH [3]: 166.4 IU/L
- Na [3]: 137.6 meq/L
- PL [3]: 162.6 mg/dL
- RALB [3]: 3.1 g/dL
- TBIL [3]: 0.006 mg/dL
- TC [3]: 77.6 mg/dL
- TG [3]: 156 mg/dL
- TP [3]: 5.8 g/dL
- gamma-GTP [3]: 1.8 IU/L
- ALP [4]: 1059.8 IU/L
- ALT [4]: 41.4 IU/L
- AST [4]: 71.2 IU/L
- BUN [4]: 16 mg/dL
- CRE [4]: 0.2 mg/dL
- Ca [4]: 10.4 mg/dL
- Cl [4]: 107 meq/L
- DBIL [4]: 0 mg/dL
- GLC [4]: 193.6 mg/dL
- IP [4]: 6.3 mg/dL
- K [4]: 4.4 meq/L
- LDH [4]: 149.2 IU/L
- Na [4]: 143 meq/L
- PL [4]: 140.4 mg/dL
- RALB [4]: 3 g/dL
- TBIL [4]: 0.008 mg/dL
- TC [4]: 69.4 mg/dL
- TG [4]: 126.6 mg/dL
- TP [4]: 6.1 g/dL
- gamma-GTP [4]: 2.8 IU/L
- TERMINAL_BW [5]: 239.5 g
- Bas [5]: 0%
- Eos [5]: 0.8%
- Fbg [5]: 319.4 mg/dL
- Hb [5]: 13.5 g/dL
- Ht [5]: 40.1%
- Lym [5]: 73.6%
- MCHC [5]: 33.5%
- MCV [5]: 62.3 fL
- Mono [5]: 3.8%
- Plat [5]: 119.3 x10_4/uL
- RBC [5]: 645 x10_4/ul
- Ret [5]: 5.7%
- WBC [5]: 116 x10_2/uL
- ALP [5]: 1534.6 IU/L
- ALT [5]: 48.8 IU/L
- AST [5]: 77.8 IU/L
- BUN [5]: 17.2 mg/dL
- CRE [5]: 0.2 mg/dL
- Ca [5]: 10.9 mg/dL
- Cl [5]: 104.2 meq/L
- DBIL [5]: 0 mg/dL
- GLC [5]: 187.6 mg/dL
- IP [5]: 8.5 mg/dL
- K [5]: 4.1 meq/L
- LDH [5]: 176.6 IU/L
- Na [5]: 139.4 meq/L
- PL [5]: 148.8 mg/dL
- RALB [5]: 3.1 g/dL
- TBIL [5]: 0 mg/dL
- TC [5]: 73.4 mg/dL
- TG [5]: 97.6 mg/dL
- TP [5]: 5.6 g/dL
- gamma-GTP [5]: 1.2 IU/L
- TERMINAL_BW [6]: 270 g
- TERMINAL_BW [7]: 315.4 g
- TERMINAL_BW [8]: 425.7 g
- Bas [6]: 0%
- Eos [6]: 0.8%
- Fbg [6]: 325.4 mg/dL
- Hb [6]: 13.6 g/dL
- Ht [6]: 40.6%
- Lym [6]: 77.2%
- MCHC [6]: 33.5%
- MCV [6]: 61.6 fL
- Mono [6]: 3.4%
- Neu [6]: 16.8%
- PT [6]: 16 s
- Plat [6]: 107.2 x10_4/uL
- RBC [6]: 659.8 x10_4/ul
- Ret [6]: 6.7%
- WBC [6]: 127.7 x10_2/uL
- Bas [7]: 0%
- Eos [7]: 0.6%
- Fbg [7]: 295.4 mg/dL
- Hb [7]: 13.9 g/dL
- Ht [7]: 41.5%
- Lym [7]: 75.2%
- MCHC [7]: 33.6%
- Mono [7]: 2.4%
- Neu [7]: 19.8%
- PT [7]: 15.2 s
- Plat [7]: 114.8 x10_4/uL
- RBC [7]: 684.2 x10_4/ul
- Ret [7]: 4.6%
- WBC [7]: 131.3 x10_2/uL
- Bas [8]: 0%
- Eos [8]: 1%
- Fbg [8]: 310.8 mg/dL
- Hb [8]: 14.8 g/dL
- Ht [8]: 42.1%
- Lym [8]: 75.6%
- MCHC [8]: 35.2%
- MCV [8]: 56.4 fL
- Mono [8]: 3.6%
- Neu [8]: 18.2%
- PT [8]: 15.8 s
- Plat [8]: 88.1 x10_4/uL
- RBC [8]: 747.2 x10_4/ul
- Ret [8]: 2.7%
- WBC [8]: 127.6 x10_2/uL
- ALP [6]: 1693.6 IU/L
- ALT [6]: 45.6 IU/L
- AST [6]: 77.6 IU/L
- BUN [6]: 15.8 mg/dL
- CRE [6]: 0.2 mg/dL
- Ca [6]: 10.6 mg/dL
- Cl [6]: 104.8 meq/L
- DBIL [6]: 0 mg/dL
- GLC [6]: 196.6 mg/dL
- IP [6]: 7.5 mg/dL
- K [6]: 4.5 meq/L
- LDH [6]: 137.2 IU/L
- Na [6]: 139 meq/L
- PL [6]: 142.4 mg/dL
- RALB [6]: 3 g/dL
- TBIL [6]: 0.004 mg/dL
- TC [6]: 69.2 mg/dL
- TG [6]: 107 mg/dL
- TP [6]: 5.6 g/dL
- gamma-GTP [6]: 1.8 IU/L
- ALP [7]: 1458 IU/L
- ALT [7]: 44.8 IU/L
- AST [7]: 86.8 IU/L
- BUN [7]: 17.2 mg/dL
- CRE [7]: 0.2 mg/dL
- Ca [7]: 10.5 mg/dL
- Cl [7]: 105.2 meq/L
- DBIL [7]: 0 mg/dL
- GLC [7]: 195.6 mg/dL
- IP [7]: 7 mg/dL
- K [7]: 4.1 meq/L
- LDH [7]: 140.8 IU/L
- Na [7]: 138.8 meq/L
- PL [7]: 150.8 mg/dL
- RALB [7]: 3.1 g/dL
- TBIL [7]: 0.012 mg/dL
- TC [7]: 67.2 mg/dL
- TG [7]: 163.6 mg/dL
- TP [7]: 5.7 g/dL
- gamma-GTP [7]: 1.8 IU/L
- ALP [8]: 1046.8 IU/L
- ALT [8]: 47 IU/L
- AST [8]: 80.8 IU/L
- BUN [8]: 17.8 mg/dL
- CRE [8]: 0.2 mg/dL
- Ca [8]: 10.5 mg/dL
- Cl [8]: 104 meq/L
- DBIL [8]: 0 mg/dL
- GLC [8]: 196.6 mg/dL
- IP [8]: 7.1 mg/dL
- K [8]: 4.2 meq/L
- LDH [8]: 157.4 IU/L
- Na [8]: 143.4 meq/L
- PL [8]: 152 mg/dL
- RALB [8]: 3 g/dL
- TBIL [8]: 0.01 mg/dL
- TC [8]: 68.4 mg/dL
- TG [8]: 184 mg/dL
- TP [8]: 5.8 g/dL
- gamma-GTP [8]: 2.4 IU/L
